Experimental findings from patent US6075060A, “Trans olefinic diols with surfactant properties” (Air Products and Chemicals, Inc., priority 1998, dated 2000) are described below.

A short description of data set [1]: Equilibrium surface tension by maximum-bubble-pressure method. Format: physicochemical. The settings on record: for Equilibrium Surface Tension: 0.1 wt %, 23° C., 1 bubble/second, Table 2; for EST, trans olefin: 0.05 wt. %, Table 4; for EST of 0.1 wt % solution: cis and trans isomers, Table 7; for EST at Solubility Limit: trans isomers, Table 8. The method, then:
The equilibrium surface tension is measured using the maximum-bubble-pressure method at 23° C. and 1 bubble/second. This method is described in Langmuir, Vol. 2 (1986), pp. 428-432. When measured at the solubility limit of the surfactant, an equilibrium surface tension of 40 dynes/cm or less is desired; preferably 35 dynes/cm or less.
The equilibrium surface tension was measured using the maximum-bubble-pressure method at 23° C. and 1 bubble/second at 0.1 wt %. The results, presented in Table 2, indicate that olefinic diols with 10 or less carbons are poor surfactants and the cis isomer has slightly better equilibrium surface tension than the trans isomer.
The equilibrium surface tension of the compounds of Examples 3, 4 and 5 was measured 0.05 wt. %.

Data set [2] is described as follows: Water solubility (solubility limit). The class given is physicochemical. To be noted: for solubility: water.

Molecules are shown by their SMILES. Converted amounts (≈) assume the structure as drawn. Bounds are passed on as bounds.

In the case of `CCC(C)(O)/C=C\C(C)(O)CC` (stereo not drawn) [Example 2 cis], the “Equilibrium Surface Tension” value in data set [1] is on record as 51 dynes/cm.
On the same count and under the same terms, the figure for `CCC(C)(O)/C=C/C(C)(O)CC` (stereo not drawn) [Example 2 trans] is 59 dynes/cm.
Regarding `CCCCCCC(C)(O)/C=C/C(C)(O)CCCCCC` (centres unmarked) [Example 3], in data set [1], the “EST, trans olefin” value is listed as 67 DYNES/CM.
On the same count and under the same terms, the same measure for `CC(O)(/C=C/C(C)(O)c1ccccc1)c1ccccc1` (centres unmarked) [Example 4]: 67 DYNES/CM; for `CCCCC(O)(/C=C/C(O)(CCCC)CCCC)CCCC` [Example 5]: 69 DYNES/CM.
For `CCC(O)(/C=C\C(O)(CC)CC)CC` [Example 6 cis, 3,6-diethyl-4-octene-3,6-diol], in data set [2] (cis and trans isomers, Table 7), the solubility was 100 µg/mL (≈ 499 µM). Further, the “EST of 0.1 wt % solution” value in data set [1] is 54 dynes/cm.
Turning to `CCC(O)(/C=C/C(O)(CC)CC)CC` [Example 6 trans, 3,6-diethyl-4-octene-3,6-diol], the concentration in solution in data set [2] (cis and trans isomers, Table 7) (solubility) came to 5000 µg/mL (≈ 25000 µM). In addition, the “EST of 0.1 wt % solution” value in data set [1] came to 50 dynes/cm.
Turning to `CC(C)CC(C)(O)/C=C\C(C)(O)CC(C)C` (stereo not drawn) [Example 7 cis, 2,4,7,9-tetramethyl-5-decene-4,7-diol], the solubility in data set [2] (cis and trans isomers, Table 7) is less than 100 µg/mL. The “EST of 0.1 wt % solution” value in data set [1] is listed as 58 dynes/cm.
Consider `CC(C)CC(C)(O)/C=C/C(C)(O)CC(C)C` (stereo not drawn) [Example 7 trans, 2,4,7,9-tetramethyl-5-decene-4,7-diol], for which the “Solubility Limit” value in data set [2] (trans isomers, Table 8) came to 0.2 wt % in water. The molecule also returned a solubility in data set [2] (cis and trans isomers, Table 7) of 2000 µg/mL (≈ 8760 µM). In data set [1], the “EST of 0.1 wt % solution” value is 34 dynes/cm and the “EST at Solubility Limit” value worked out at 29 dynes/cm.
For `CC(C)CCC(C)(O)/C=C\C(C)(O)CCC(C)C` (stereo not drawn) [Example 8 cis, 2,5,8,11-tetramethyl-6-dodecene-5,8-diol], the solubility in data set [2] (cis and trans isomers, Table 7) is less than 100 µg/mL. Further, in data set [1], the “EST of 0.1 wt % solution” value is 68 dynes/cm.
Consider `CC(C)CCC(C)(O)/C=C/C(C)(O)CCC(C)C` (stereo not drawn) [Example 8 trans, 2,5,8,11-tetramethyl-6-dodecene-5,8-diol], for which the “Solubility Limit” value in data set [2] (trans isomers, Table 8) is 0.03 wt % in water. In data set [2] (cis and trans isomers, Table 7), this molecule came in with a solubility of 300 µg/mL (≈ 1170 µM). Also, in data set [1], the “EST of 0.1 wt % solution” value came out at 33 dynes/cm and the “EST at Solubility Limit” value is given as 33 dynes/cm.
`CCCCC(C)(O)/C=C/C(C)(O)CCCC` (centres unmarked) [Example 9, 5,8-dimethyl-6-dodecene-5,8-diol] came in with a solubility in data set [2] (trans isomers, Table 8) of 1000 µg/mL (≈ 4380 µM). Further, the “EST at Solubility Limit” value in data set [1] was 33 dynes/cm.

By solubility is commonly meant how much of the substance goes into solution per volume. Higher therefore signals much dissolved substance.
